Data set [1] concerns fetal pancreatic cells growing as islet-like cell clusters. The experiment in a line: Cytotoxicity and apoptosis in culture.
The conditions of data set [2]: tissue culture medium; cited from earlier work.
In data set [3] the test system is PI3K. The experiment in a line: PI3K assay on immunoprecipitates from treated fetal ICCs. Format: cell-based, human. The settings on record: for control PI3K activity eliminated, p85 immunoprecipitates: 100 nM wortmannin or 10 μM Ly294002, 5 d. The text has this: (§1) The use of human fetal tissue for these studies was reviewed and approved by the Institutional Review Board at our university. Human fetal pancreases at 18-24 gestational wk were obtained with appropriate permissions and patient consent through nonprofit organ procurement programs (Advanced Bioscience Resources, Oakland, Calif.; Anatomic Gift Foundation, Laurel, Md.). Experiments were started by the enzymatic digestion with collagenase P (Boehringer Mannheim Corp., Indianapolis, Ind.) of the human fetal pancreases followed by tissue culture for 5 d, which led to the formation in vitro of ICCs, as previously described in detail (Otonkoski et al. (1993) J. Clin. Invest. 92:1459-1466).
PI3K inhibitors, NIC, or HGF/SF were added to the culture medium from the very beginning. Medium plus factor was changed every day for 5 d. For direct comparison, portions of the same pancreases were grown, treated with factors, and used for transcriptional analyses, insulin content and secretion, PI3K activities, and DNA synthesis.
(§2) Aliquots of cell lysates normalized for protein content were incubated for 3 h with antiPI3K antibodies directed against the 85kD regulatory subunit or with antiphosphotyrosine antibodies (Upstate Biotechnology, Inc., Lake Placid, N.Y.). The immune complexes were absorbed onto protein A-Sepharose and washed as described (Ptasznik et al. (1995) J. Biol. Chem. 270:19969-19973). PI3K assays were performed directly on beads. Briefly, the reaction was carried out for 10 min in a buffer containing 40 mM Hepes, pH 7.2, 6 mM MgCl2, 1 mM EDTA, […] (Avanti Polar Lipids, Alabaster, Ala.), […], and 10 mCi [γ^32P]ATP (6,000 Ci/mmol; DuPont/NEN, Wilmington, Del.). Adenosine (0.2 mM) was added to the reaction mixture to inhibit residual PI 4 kinase activity. After the incubation, the reaction was stopped with methanol plus 2.4 N HCl (1:1, vol/vol), and lipids were extracted, analyzed by thin-layer chromatography, and quantified as described previously (Ptasznik et al. (1995) J. Biol. Chem. 270:19969-19973). In some experiments, the direct binding of PI3K to p190Met after HGF/SF stimulation of islet cells was determined, as previously described in detail (Graziani, et al. (1991) J. Biol. Chem. 266:22087-22090).

Data set [4] has as its system human fetal ICCs. Kind of data set: [3H]thymidine incorporation into DNA. The settings on record: ICCs 5 d with inhibitor, FIG. 4A. Format: cell-based. How it is done: After incubation with various factors in culture, the ICCs were harvested, and measurements of insulin content, insulin release in response to glucose plus theophylline, and [^3H]thymidine incorporation into DNA were performed as described previously (Otonkoski et al. (1993) J. Clin. Invest. 92:1459-1466).

Data set [5] concerns human fetal ICCs. The experiment in a line: Triple immunofluorescence, confocal microscopy and morphometric analysis. Type of data set: cell-based. As for the experimental part: ICCs cultured for 5 d in either control medium or medium containing 10 μM Ly 294002 were paraffin embedded, and […] sections were stained for hormone immunoreactivity. To simultaneously identify cells producing insulin, glucagon, somatostatin, and pancreatic polypeptide (pp), we followed a modification of our previous protocol for multiple labeling (Otonkoski et al. (1996) J. Clin. Invest. 79:351-358). Briefly, sections were incubated for 1 h at room temperature with a mixture of primary antibodies: IgG fraction of a sheep anti-human insulin antiserum (The Binding Site, Birmingham, England) ([…]), mouse monoclonal anti-human glucagon (Sigma Chemical Co.) (1 mg/ml), rabbit anti-human somatostatin antiserum (Dako Corporation, Carpinteria, Calif.) (used at 1:100 dilution), and rabbit anti-human pp antiserum (Chemicon International, Inc., Temecula, Calif.) (used at 1:100 dilution). In separate sections, a mixture of normal sheep, rabbit, and mouse IgGs was used as control reference for specificity of primary antibodies. After washings in PBSDS (5 mM glycine, 0.2% donkey serum, 0.1% BSA), sections were incubated for 1 h at room temperature with a cocktail of F(ab′)2 fractions from secondary antibodies: lissamine-rhodamine-conjugated affinity-purified donkey anti-sheep IgGs ([…]); FITC-conjugated affinity-purified donkey anti-rabbit IgGs ([…]); and indodicarbocyanine-conjugated affinity-purified donkey anti-mouse IgGs ([…]). All F(ab′)2 were preadsorbed on appropriate multiple species to eliminate the possibility of crossreactivity in multiple labeling protocols (Jackson ImmunoResearch Labs, Inc., West Grove, Pa.). The sections were processed as previously described (Otonkoski et al. (1996) J. Clin. Invest. 79:351-358) and viewed on a laser scanning confocal microscope (model MRC1024; BioRad Laboratories, Hercules, Calif.).
Sections were prepared from control and Ly294002 treated ICCs from three independent experiments. […] All images collected (one image per section) were then analyzed for total surface area and insulin, glucagon, somatostatin, and positive cell surface area by using measurement tools in the software NIH Image 1.60 (National Institutes of Health, Bethesda, Md.). Data were analyzed in Stat View 4.01 (Abacus Concepts, Inc., Berkeley, Calif.) for calculation of mean, standard deviation, and parametric statistic (t test).

Data set [6] concerns human fetal ICCs. Kind of data set: Insulin content and insulin release of ICCs. Format: cell-based.
Text: as §1, with “92:1459-1466). […] After incubation with various factors in culture, the ICCs were harvested, and measurements of insulin content, insulin release in response to glucose plus theophylline, and [^3H]thymidine incorporation into DNA were performed as described previously (Otonkoski et al. (1993) J. Clin. Invest. 92:1459-1466).” for “92:1459-1466).”

Another data set concerns PIP3. Kind of data set: Determination of total cellular PIP3 in [32P]orthophosphate-labeled ICCs. Format: cell-based, human. As for the experimental part: The ICCs, which were pretreated for 5 d with PI3K inhibitors, NIC, HGF/SF, or control buffer, were subsequently harvested and suspended at a concentration of 2 3 10 5 cells/ml in buffer A (30 mM Hepes, pH 7.2, 110 mM NaCl, 10 mM KCl, 1 mM MgCl2, 10 mM glucose), and 1 mCi/ml [^32P]orthophosphate ([…]; DuPont/NEN) was added. The cells were incubated at 37° C. for 2 h and then washed 3× with buffer A. Depending on the type of experiment, the labeled islet cells were either directly lysed by addition of 3 ml chloroform/methanol (1:2, vol/vol), followed by 4 ml chloroform/2.4 M HCl (1: 1, vol/vol) (to measure basal levels of PIP3 ), or labeled cells were first stimulated with 25 ng/ml HGF/SF for the indicated times, and subsequently the reaction was stopped as above (to measure the inducible levels of PIP3 ). Phospholipids were extracted and analyzed by thinlayer chromatography, and the total cellular PIP3 was quantified, as we described previously in detail (Ptasznik et al. (1996) J. Biol. Chem. 271 :25204-25207).

In data set [7] the test system is islet hormone gene expression in human fetal ICCs. The experiment in a line: Multiprobe ribonuclease protection assay of islet hormone mRNA. Type of data set: cell-based. The settings on record: ICCs 5 d, 100 nM wortmannin or 10 μM Ly294002, FIG. 1. The text has this:
The use of human fetal tissue for these studies was reviewed and approved by the Institutional Review Board at our university. Human fetal pancreases at 18-24 gestational wk were obtained with appropriate permissions and patient consent through nonprofit organ procurement programs (Advanced Bioscience Resources, Oakland, Calif.; Anatomic Gift Foundation, Laurel, Md.). Experiments were started by the enzymatic digestion with collagenase P (Boehringer Mannheim Corp., Indianapolis, Ind.) of the human fetal pancreases followed by tissue culture for 5 d, which led to the formation in vitro of ICCs, as previously described in detail (Otonkoski et al. (1993) J. Clin. Invest. 92:1459-1466). […] Transcriptional analyses on total RNA ([…]) were performed using a multiprobe ribonuclease protection assay, as previously described (Otonkoski et al. (1993) J. Clin. Invest. 92:1459-1466). The housekeeping gene cyclophilin was used as an internal control, and yeast tRNA (10 μM) was included as a negative control. Probes used were of human origin and were described previously (Otonkoski et al. (1993) J. Clin. Invest. 92:1459-1466). Target RNAs were quantitated in autoradiographs by scanning densitometry (LKB UltroScan XL Laser) and integrated using Gel Scan XL software (Pharmacia LKB Biotechnology, Inc., Piscataway, N.J.). The probe-specific mRNA signals were normalized to the cyclophilin signal in each sample to account for differences in sample loading between lanes.

Data set [8] has the same test system. Conditions: earlier publications; cited from earlier work.
Data set [9] relates to PI3K. Kind of data set: Direct effect on PI3K activity in vitro in p85 immunoprecipitates. Type of data set: biochemical, human. Conditions: various concentrations of NIC. As for the experimental part:
as §2

The subject of a further data set is p85 protein. The experiment in a line: Western blotting of p85 protein. The settings on record: during NIC treatment. Format: cell-based, human. On the technique in general: Immunoblotting shows a protein as a band on a membrane.
The next data set has as its system purified fetal islets. Kind of data set: Endocrine function in purified fetal islets. Type of data set: cell-based, human. As for the experimental part:
Effects of PI3K inhibitors on endocrine function were tested not only in ICCs, but also in purified islets. Undifferentiated epithelial cells account for z75-80% of the total cell mass in ICCs. By contrast, purified fetal islets contain about 10 fold fewer undifferentiated epithelial cells (Beattie et al. (1996) Diabetes. 46:244-248). Purification of human fetal pancreatic islets was performed as recently described (Beattie et al. (1996) Diabetes. 46:244-248). Fetal islets, identified as homogeneous differentiated clusters of dithizonepositive cells, were incubated with factors as above.

For the compound `COC[C@H]1OC(=O)c2coc3c2[C@@]1(C)C1=C(C3=O)[C@@H]2CCC(=O)[C@@]2(C)C[C@H]1OC(C)=O` [wortmannin], the cytotoxicity and apoptosis entry in data set [1] (continuous treatment 5 d, 100 nM wortmannin, 10 μM Ly294002) is listed as “does not cause notable cytotoxity nor induce apoptosis”. In data set [2], the “stability in culture medium” value is given as “much less stable”. The “control PI3K activity eliminated, p85 immunoprecipitates” value in the data set with PI3K [3] (FIG. 7) came out at 90%.
As to `O=c1cc(N2CCOCC2)oc2c(-c3ccccc3)cccc12` [Ly294002, 2-(4-Morpholinyl)-8-phenyl-4 H-1-benzopyran-4-one], in the data set with human fetal ICCs [4], the “[3H]thymidine incorporation into DNA” value is “significantly decreased”. Also, in data set [1], the “cytotoxicity (general statement)” value is given as “no significant cytotoxicity”. The “increase in the total percentage of endocrine-positive cells versus control ICCs” value in the data set with human fetal ICCs [5] (10 μM Ly294002, 5 d) is reported as 4.4 fold. Also, in the data set on human fetal ICCs [5] (10 μM Ly294002, 5 d, FIG. 3), the “frequency of cells coexpressing multiple hormones” value is listed as “increased” and the “total endocrine cell surface area” value is “significantly increased”. The “endocrine surface area for all hormones (insulin; somatostatin and pp; glucagon), percent of total ICC surface area” value in the data set on human fetal ICCs [5] (10 μM Ly294002, 5 d, FIG. 3, n=3) is listed as “significantly increased”. The “number of hormone producing cells growing in ICCs” value in the data set on human fetal ICCs [5] (blockade of PI3K activity in culture) is “significantly increased”. Besides, the “stability in culture medium” value in data set [2] is “very stable”. In the data set with human fetal ICCs [6] (ICCs cultured 5 d with inhibitor, FIG. 2A), the “insulin content per cellular DNA versus untreated control” value is “significantly increased”. Also, in the data set with human fetal ICCs [6] (ICCs cultured 5 d with inhibitor, glucose plus theophylline, FIG. 2B), the “insulin secretion per cellular DNA versus untreated control” value was “significantly increased”. The “control PI3K activity eliminated, p85 immunoprecipitates” value with PI3K [3] (FIG. 7) amounted to 90%. For the same compound, in the data set with PIP3 (100 nM wortmannin or 10 μM Ly294002, intact labeled islet cells), the “rise in PIP3 formation stimulated by growth factors” value was “almost completely inhibited”. Moreover, in data set [7], the “transcriptional level of glucagon” value is “increased”, the “transcriptional level of insulin” value is “increased” and the “transcriptional level of somatostatin” value is “increased”.
As to “hepatocyte growth factor/scatter factor [HGF/SF]”, in data set [8], the “insulin and glucagon gene transcription and insulin protein biosynthesis” value was “marked down-regulation”. The “cellular PI3K activity after acute stimulation” value in the data set on PI3K [3] (25 ng/ml HGF/SF, ICCs starved 24 h, antiphosphotyrosine immunoprecipitates, FIG. 5) is reported as “robustly activated”. For the same compound, the “increase in levels of PIP3” value in the data set on PIP3 (ICCs growing continuously (5 d) with 25 ng/ml HGF/SF, FIG. 6) is “threefold”.
In the case of `CO[C@@]12[C@H](COC(N)=O)C3=C(C(=O)C(C)=C(N)C3=O)N1C[C@@H]1N[C@@H]12` [mitomycin C], in the data set on human fetal ICCs [6] (2 mg/ml mitomycin C for 5 d, FIG. 4B), the insulin protein expression entry is “does not affect”. In addition, the “basal PI3K activity in fetal islet cells significantly affected” value in the data set on PI3K [3] (mitomycin C-treated cells) is on record as “neither”.
In the case of `NC(=O)c1cccnc1` [NIC, nicotinamide], in [8], the “insulin and glucagon gene transcription and insulin protein biosynthesis” value is “an increase”. Moreover, the “direct inhibitory effect on PI3K activity in vitro” value in the data set with PI3K [9] is reported as “not a direct inhibitor”. In addition, the “actual level of p85 protein” value with p85 protein was “no change”. In addition, the “effect on endocrine function in purified fetal islets” value in the data set with purified fetal islets was “no effect”. In addition, the “amount of PI3K activity in p85 immunoprecipitates, lower than untreated cells” value in the data set on PI3K [3] (10 mM NIC, 5 d, FIG. 7) is listed as “about fivefold”. Also, in the data set on PI3K [3] (NIC-treated cells), the “inducibility of cellular PI3K activity by growth factors and de novo formation of PIP3” value is listed as “significantly reduced”. Besides, in the data set with PIP3 (10 mM NIC, 5 d, FIG. 6), the “basal level of PIP3 versus control cells” value was “significantly lower”.

The values are drawn from patent US6413773B1, “Phosphatidylinositol 3-kinase inhibitors as stimulators of endocrine differentiation” (The Regents of the University of California, priority 1998, dated 2002).
